“Also recorded” adds a separate entry of the source.
Assays:
[1] = system: L. amazonensis promastigotes; assay: Activity against promastigotes of L. amazonensis (MTT); format: cell-based; settings: Leishmania amazonensis, 72 h, read-out: Promastigote IC50
Procedure: Promastigotes of L. amazonensis (IFLA/BR/67/PH8) were cultivated in brain heart infusion ([…] José dos […], Brazil) supplemented with bovine hemin (Sigma-Aldrich, St. Louis, MO, USA), folic acid (Sigma-Aldrich, St. Louis, MO, USA), inactivated fetal bovine serum (Cultilab, São Paulo, Brazil), and penicillin/streptomycin solution (Sigma-Aldrich, St. Louis, MO, USA). The cells were kept at 25°C in a BOD incubator. […] Louis, MO, USA; Mosmann [1983]). The viability of parasites was measured using a spectrophotometer (Multiskan EX-Thermo Electron Corporation, Vantaa, Finland) at 570 nm. The values were expressed as an inhibitory concentration capable of inhibiting 50% (IC50) of cell growth by using GraFit 5 software (Erithacus Software Ltda). […] Paulo, SP, Brazil) were used as reference drugs. All assays were run in triplicate across three separate trials.

[2] = Cytotoxicity against mammalian cells (MTT); format: cell-based, BALB/c mice; settings: BALB/c, mouse; peritoneal murine macrophages, 72 h, MTT
Procedure: (§1) After being prepared as previously mentioned, murine peritoneal macrophages obtained from BALB/c mice were either left untreated (negative control) or treated with the compounds (3.125–100.000 μM). Using a spectrophotometer (Multiskan EX, Thermo Electron Corporation, Vantaa, Finland) set to 570 nm, cell viability was assessed after 72 h of treatment using the MTT method (Mosmann [1983]). A cytotoxic concentration for 50% of the cell population (CC50) was used to express the results. The reference medication was miltefosine (Cayman Chemical Company, Ann Arbor, MI, USA). The assays were performed in three independent experiments in duplicate. The selectivity index was calculated by […].

[3] = system: L. amazonensis intracellular amastigotes; assay: Activity against intracellular amastigote forms of L. amazonensis in peritoneal macrophages (Giemsa counting); format: cell-based, Leishmania amazonensis; settings: for IC50: Leishmania amazonensis, Peritoneal macrophage, intracellular amastigotes in murine peritoneal macrophages, 72 h; for SI (Selectivity Index): CC50 of peritoneal murine macrophages/IC50 L. amazonensis amastigotes
Procedure: Peritoneal macrophages were obtained from BALB/c mice previously inoculated with 3% thioglycollate medium (da Trindade Granato et al. [2018]). The macrophages (2 × 10^6 cells/mL) were then allowed to adhere in 24‐well culture plates for 16 h at 37°C in a 5% CO2 atmosphere. After rinsing with phosphate‐buffered saline (PBS), the adhered macrophages were infected with stationary‐phase promastigotes of L. amazonensis at a 10:1 parasite‐to‐macrophage ratio for 4 h at 33°C. After several washes to remove non‐adherent promastigotes, the cells were either left untreated (negative control) or treated with the compounds (3.125–100.000 μM). Following a 72 h treatment period, the infected macrophages were fixed in ethanol, stained with Giemsa, and 200 macrophages were counted to determine the number of intracellular amastigotes. The GraFit software was used to determine the IC50, which was the outcome of three separate trials conducted in duplicate.

[4] = system: L. amazonensis promastigotes; assay: Mitochondrial membrane potential (JC-1); format: cell-based, Leishmania amazonensis; settings: for mitochondrial membrane hyperpolarization: 24 h
Procedure: To evaluate mitochondrial membrane potential (MMP), L. amazonensis promastigotes (5 × 10^6 cells) were exposed to compound 7 (1.25 μM and 2.50 μM) for 6 and 24 h. After incubation, the cells were washed with PBS and stained with 5.00 μM JC‐1 (Coimbra et al. [2019]). After a 40‐min incubation with JC‐1, the cells were washed with Hank's solution, and fluorescence was measured using a fluorimeter (FLx800, BioTek Instruments Inc., Winooski, VT, USA) at excitation/emission wavelengths of 485/528 nm and 540/600 nm to detect fluorescence from monomers and J‐aggregates, respectively. As a positive control, cells were treated with 10.00 μM FCCP (Sigma‐Aldrich, St. Louis, MO, USA). MMP was assessed by calculating the ratio of fluorescence emitted by J‐aggregates to that of monomers.

[5] = system: L. amazonensis promastigotes; assay: Total ROS production (H2DCFDA); format: cell-based, Leishmania amazonensis
Procedure: (§2) To measure ROS and mitochondrial ROS (superoxide) levels, L. amazonensis promastigotes (5 × 10^6 cells) were exposed to compound 7 (1.25 and 2.50 μM) for 6 and 24 h, following the methodology described by da Trindade Granato et al. ([2018]). Before the incubation, cells were washed with PBS and stained with 1 mM H2DCFDA (Invitrogen, Waltham, MA, USA) to measure total ROS. Fluorescence was measured after a 30‐min incubation with the dye using a fluorimeter (FLx800, BioTek Instruments Inc., Winooski, VT, USA) at an excitation/emission wavelength of 485/528 nm. As a positive control, cells were treated with 62.5 μM H2O2. To quantify mitochondrial superoxide, the MitoSOX Red indicator (Invitrogen, Molecular Probes, Eugene, Oregon, USA) was employed. Leishmania amazonensis promastigotes were treated with compound 7 (1.25 and 2.50 μM) for 6 and 24 h at 25°C. Cells were labeled with MitoSOX Red indicator at 5 μM and incubated for 20 min. Promastigotes incubated with antimycin A (10 μM) were used as the positive control. Fluorescence intensity was evaluated in a spectrofluorometer (FLx800, BioTek Instruments Inc., Winooski, VT, USA) at 540/600 nm of excitation/emission, respectively.

[6] = system: peritoneal murine macrophages; assay: Cytotoxicity against mammalian cells (MTT); format: cell-based, BALB/c mice; settings: comparator from Meinel et al. [2020]
Procedure: as §1

human erythrocytes = assay: Cytotoxicity in human red blood cells (hemolytic assay); format: cell-based; settings: 24 h, 0.09–200.00 μM
Procedure: (§3) Blood cells were centrifuged at 1500 rpm, the plasma and leukocytes were discarded, and the erythrocytes were washed in PBS. Then, the cells were diluted to a concentration of 1%, plated in 96‐well plates, and untreated or treated with the compound 7 at different concentrations (0.09–200.00 μM). The plate was incubated for 24 h at 37°C, and then centrifuged at 2000 rpm for 1 min. The supernatant was collected, and the absorbance (Abs) was determined in a spectrophotometer (Multiskan EX, Thermo Electron Corporation, Vantaa, Finland) at 540 nm. Untreated cells were considered the negative control. For the positive control, 0.2% saponin in deionized water was used.

[7] = as above; format: cell-based; settings: human erythrocytes (1% suspension), 200.00 μM (maximum concentration tested)
Procedure: as §3

[8] = system: L. amazonensis promastigotes; assay: Mitochondrial superoxide (MitoSOX Red); format: cell-based, Leishmania amazonensis; settings: for increase in mitochondrial superoxide: 6 h
Procedure: as §2

[9] = system: L. amazonensis promastigotes; assay: Cell membrane integrity (propidium iodide); format: cell-based, Leishmania amazonensis; settings: 24 h, 1.25 and 2.50 μM
Procedure: To evaluate cell membrane integrity, L. amazonensis promastigotes (5 × 10^6 cells) were treated with compound 7 (1.25 and 2.50 μM) for 24 h. After incubation, the cells were washed with PBS and stained with 0.20 μg/mL of propidium iodide (PI) (Sigma‐Aldrich, St. Louis, MO, USA) (da Trindade Granato et al. [2018]). Following a 15‐min incubation with PI, fluorescence was measured using a fluorimeter (FLx800) at an excitation/emission wavelength of 540/600 nm. Cells exposed to heat at 65°C for 10 min were used as a positive control.

[10] = system: peritoneal murine macrophages; design: method as in Meinel et al. ([2020]); settings: murine macrophage cells; ref Meinel et al. ([2020]); cited from earlier work

Work on `CCCCCCCCCCCCn1cc(COC(=O)c2ccccc2O)nn1` [Compound 4, (1‐Dodecyl‐1H‐1,2,3‐Triazol‐4‐Yl)methyl 2‐Hydroxybenzoate] yielded an IC50 [1] of over 100 µM, a CC50 at 72 h [2] of over 150 µM and an IC50 [3] of over 100 µM.
With `CCCCCCCCCCCCCCn1cc(COC(=O)c2ccccc2O)[n+](C)n1.[I-]` [Compound 10, 1‐Tetradecyl‐4‐(((2‐Hydroxybenzoyl)oxy)methyl)‐3‐Methyl‐1H‐1,2,3‐Triazol‐3‐Ium Iodide] the IC50 [1] was 1.55 ± 0.34 µM, the CC50 at 72 h [2] was 2.37 ± 0.82 µM and the “SI (Selectivity Index)” value [3] was 0.40. The IC50 [3] was 5.92 ± 2.24 µM.
In the case of `CCCCCCCCn1cc(COC(=O)c2ccccc2O)[n+](C)n1.[I-]` [Compound 7, 1‐Octyl‐4‐(((2‐Hydroxybenzoyl)oxy)methyl)‐3‐Methyl‐1H‐1,2,3‐Triazol‐3‐Ium Iodide], the “mitochondrial membrane potential (in words)” value ([4]; 6 h, 1.25 and 2.50 μM) is reported as “no change; also recorded: without alterations”, the mitochondrial membrane hyperpolarization ([4]; 2× IC50 value (2.50 μM)) is reported as 29.66% and the mitochondrial membrane hyperpolarization ([4]; IC50 value (1.25 μM)) is reported as 22.00%. For the same compound, the IC50 [1] was 1.26 ± 0.27 µM, the “increase in total ROS” value ([5]; 6 h, 2× IC50 value (2.50 μM)) was 56.54% and the “increase in total ROS” value ([5]; 6 h, IC50 value (1.25 μM)) was 62.81%. For the same compound, the “increase in total ROS” value ([5]; 24 h, 2× IC50 value (2.50 μM)) was 77.03%, the “increase in total ROS” value ([5]; 24 h, IC50 value (1.25 μM)) was 79.87% and the “fold lower cytotoxicity compared to the 4-hydroxy-substituted precursor previously described” value [6] was 3.8 fold. For the same compound, the CC50 at 72 h [2] was 111 ± 34.5 µM, the “SI (Selectivity Index)” value [3] was 17.81 and the IC50 [3] was 6.23 ± 0.35 µM. The “hemolytic effect (in words)” value (human erythrocytes) was “no hemolytic effect”, the hemolysis at 24 h, 200 µM [7] was 3.82% and the “increase in mitochondrial superoxide” value ([8]; 2× IC50 value (2.50 μM)) was 62.54%. For the same compound, the “increase in mitochondrial superoxide” value ([8]; IC50 value (1.25 μM)) was 57.68%, the “mitochondrial superoxide levels (in words)” value ([8]; 24 h, 1.25 and 2.50 μM) was “no alteration” and the “membrane integrity, PI staining (in words)” value [9] was “unaffected; also recorded: no significant alterations”.
`CCCCCCCCCCn1cc(COC(=O)c2ccccc2O)nn1` [Compound 3, (1‐Decyl‐1H‐1,2,3‐Triazol‐4‐Yl)methyl 2‐Hydroxybenzoate] showed an IC50 [1] of over 100 µM, a CC50 at 72 h [2] of 70.2 ± 14.2 µM and an IC50 [3] of over 100 µM.
For `CCCCCCCCCCn1cc(COCC2CO2)[n+](C)n1.[I-]` (stereo not drawn) [1‐decyl‐3‐methyl‐4‐((oxiran‐2‐ylmethoxy)methyl)‐1H‐1,2,3‐triazol‐3‐ium iodide], the “fold lower cytotoxicity compared to its 4-hydroxy-substituted precursor” value [10] is given as “approximately 2.5 fold”.
With `CCCCCCCCCCCCCCCCn1cc(COC(=O)c2ccccc2O)[n+](C)n1.[I-]` [Compound 11, 1‐Hexadecyl‐4‐(((2‐Hydroxybenzoyl)oxy)methyl)‐3‐Methyl‐1H‐1,2,3‐Triazol‐3‐Ium Iodide] the IC50 [1] was 1.72 ± 0.02 µM, the CC50 at 72 h [2] was 4.01 ± 1.12 µM and the “SI (Selectivity Index)” value [3] was 0.32. It also gave an IC50 [3] of 12.4 ± 1.86 µM.
Work on `CCCCCCCCCCCCCCn1cc(COC(=O)c2ccccc2O)nn1` [Compound 5, (1‐Tetradecyl‐1H‐1,2,3‐Triazol‐4‐Yl)methyl 2‐Hydroxybenzoate] yielded an IC50 [1] of over 100 µM, a CC50 at 72 h [2] of over 150 µM and an IC50 [3] of over 100 µM.
`CCCCCCCCCCCCCCCCn1cc(COC(=O)c2ccccc2O)nn1` [Compound 6, (1‐Hexadecyl‐1H‐1,2,3‐Triazol‐4‐Yl)methyl 2‐Hydroxybenzoate] gave an IC50 [1] of over 100 µM, a CC50 at 72 h [2] of over 150 µM and an IC50 [3] of over 100 µM.
With `CCCCCCCCCCn1cc(COC(=O)c2ccccc2O)[n+](C)n1.[I-]` [Compound 8, 1‐Decyl‐4‐(((2‐Hydroxybenzoyl)oxy)methyl)‐3‐Methyl‐1H‐1,2,3‐Triazol‐3‐Ium Iodide] the IC50 [1] was 1.08 ± 0.18 µM, the CC50 at 72 h [2] was 0.31 ± 0.22 µM and the “SI (Selectivity Index)” value [3] was 0.12. For the same compound, the IC50 [3] was 2.49 ± 0.5 µM.
In the case of `C[C@@H]1[C@H](O)[C@@H](C)/C=C/C=C/C=C/C=C/C=C/C=C/C=C/[C@H](O[C@@H]2O[C@H](C)[C@@H](O)[C@H](N)[C@@H]2O)C[C@@H]2O[C@](O)(C[C@@H](O)C[C@@H](O)[C@H](O)CC[C@@H](O)C[C@@H](O)CC(=O)O[C@H]1C)C[C@H](O)[C@H]2C(=O)O` [Am B, amphotericin B, reference compound], the CC50 at 72 h [2] is reported as 0.71 ± 0.22 µM, the IC50 [3] is reported as 85.8 ± 30.4 µM and the hemolysis at 24 h, 200 µM [7] is reported as 95.9%.
Compound `CCCCCCCCCCCCCCCCOP(=O)([O-])OCC[N+](C)(C)C` [Miltefosine, reference compound] has an IC50 [1] of 15.1 ± 2.08 µM, a CC50 at 72 h [2] of 151.81 ± 0.03 µM and an IC50 [3] of 11.5 ± 1.79 µM. For the same compound, the hemolysis at 24 h, 200 µM [7] was 95.9%.
`CCCCCCCCn1cc(COC(=O)c2ccccc2O)nn1` [Compound 2, (1‐Octyl‐1H‐1,2,3‐Triazol‐4‐Yl)methyl 2‐Hydroxybenzoate] gave an IC50 [1] of over 100 µM, a CC50 at 72 h [2] of over 150 µM and an IC50 [3] of over 100 µM.
In the case of `CCCCCCCCCCCCn1cc(COC(=O)c2ccccc2O)[n+](C)n1` [Compound 9, 1‐Dodedecyl‐4‐(((2‐Hydroxybenzoyl)oxy)methyl)‐3‐Methyl‐1H‐1,2,3‐Triazol‐3‐Ium Iodide], the IC50 [1] is reported as 1.58 ± 0.12 µM, the CC50 at 72 h [2] is reported as 1.34 ± 0.32 µM and the “SI (Selectivity Index)” value [3] is reported as 0.21. The IC50 [3] was 6.31 ± 1.86 µM.

Source: PMC12723204, “Mitochondrial Dysfunction Induced by a Novel Salicylate‐Based 1,2,3‐Triazole Salt With Potent Antileishmanial Activity” (Chemical Biology & Drug Design, 2025)
